From ChEMBL document CHEMBL4422615, “Novel non-xanthine antagonist of the A2B adenosine receptor: From HTS hit to lead structure” (Eur J Med Chem, 2019)
pIC50: −log10 of the molar value.

What was measured:
[1] = target: T1, Adenosine receptor A2b (Homo sapiens, UniProt P29275); assay: Displacement of [3H]DPCPX from human A2B adenosine receptor expressed in HEK293 cell membranes after 60 mins by radioligand displacement assay
T1 sequence (P29275 whole entry): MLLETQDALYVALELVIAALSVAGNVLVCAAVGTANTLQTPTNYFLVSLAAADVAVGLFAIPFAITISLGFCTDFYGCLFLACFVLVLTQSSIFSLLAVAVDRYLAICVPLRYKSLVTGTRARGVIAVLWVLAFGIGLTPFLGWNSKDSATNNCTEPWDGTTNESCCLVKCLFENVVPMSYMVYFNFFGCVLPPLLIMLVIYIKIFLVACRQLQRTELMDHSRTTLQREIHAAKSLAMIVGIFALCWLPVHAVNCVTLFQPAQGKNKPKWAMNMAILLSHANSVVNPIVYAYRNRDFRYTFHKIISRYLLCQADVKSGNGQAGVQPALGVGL

[2] = species: Homo sapiens; assay: Selectivity index, ratio of IC50 for human A1 adenosine receptor expressed in CHO cell membranes to IC50 for human A2B adenosine receptor expressed in HEK293 cell membranes; type: cell-based
[3] = species: Homo sapiens; assay: Selectivity index, ratio of IC50 for human A2A adenosine receptor expressed in HEK293 cell membranes to IC50 for human A2B adenosine receptor expressed in HEK293 cell membranes; type: cell-based
[4] = species: Homo sapiens; assay: Selectivity index, ratio of IC50 for human A3 adenosine receptor expressed in HEK293 cell membranes to IC50 for human A2B adenosine receptor expressed in HEK293 cell membranes; type: cell-based

Row | Compound | pIC50 [1] | Ratio IC50 [2] | Ratio IC50 [3] | Ratio IC50 [4]
1 | COCCn1c(=O)n(CC2(c3ccccc3)CC2)c(=O)c2c(C)csc21 | 5.82 | 1 | 7 | 
2 | COCCn1c(=O)n(CCc2ccccc2)c(=O)c2c(C)c(C(F)(F)c3ccccc3)sc21 | 5.55 | 0.36 | 3 | 2
3 | COCCn1c(=O)n(CC=C(F)F)c(=O)c2c(C)csc21 | 5.31 | 2 | 2 | 
4 | Cc1csc2c1c(=O)n(CCc1ccccc1)c(=O)n2CCc1ccc(S(N)(=O)=O)cc1 | 5.77 | 2 | 6 | 4
5 | COCCn1c(=O)n(CCC2CCOCC2)c(=O)c2c(C)csc21 | < 5.00 | 1 | 1 | 1
6 | COCCn1c(=O)n(CCc2ccccc2)c(=O)c2c(C)c(C)sc21 | 6.70 | 12 |  | 33
7 | Cc1csc2c1c(=O)n(CCc1ccccc1)c(=O)n2CC(=O)Nc1cc(Cl)ccc1C(=O)O | < 5.00 |  |  | 
8 | CCOC(=O)c1sc2c(c1C)c(=O)n(CCc1ccccc1)c(=O)n2CCOC | 5.77 | 2 | 6 | 4
9 | COCCn1c(=O)n(CCc2ccccc2)c(=O)c2c(C)c(-c3ccccc3)sc21 | 5.31 | 0.65 | 2 | 1
10 | COCCn1c(=O)n(CCc2ccccc2)c(=O)c2c3c(sc21)CCC3 | 7.01 | 16 |  | 69
11 | Cc1csc2c1c(=O)n(CCc1ccccc1)c(=O)n2CC1CCCO1 (stereo in doubt; 7) |  | 46 | 62 | 37
12 | Cc1csc2c1c(=O)n(CCc1ccccc1)c(=O)n2CC#N | 6.89 |  |  | 
13 | Cc1csc2c1c(=O)n(CCc1ccccc1)c(=O)n2CC1CCCO1 (racemic) |  | 13 | 21 | 13
14 | COCCn1c(=O)n(CCc2ccccc2F)c(=O)c2c(C)csc21 | 6.68 |  |  | 

The next lines start with results.

Row | pIC50 [1] | Compound | Ratio IC50 [2] | Ratio IC50 [3] | Ratio IC50 [4]
15 | 6.59 | COCCn1c(=O)n(CCc2ccccc2)c(=O)c2c(C)c(C(=O)N3CCCC3)sc21 |  |  | 
16 | 6.72 | COCCn1c(=O)n(CCc2ccccc2)c(=O)c2c(C)c(C(=O)c3cn(C)cn3)sc21 | 4 | 9 | 35
17 | 6.89 | Cc1csc2c1c(=O)n(CCc1ccccc1)c(=O)n2Cc1ncc[nH]1 | 11 | 35 | 51
18 | 6.36 | CCn1c(=O)c2c(C)c(C)sc2n(CCOC)c1=O | 9 | 8 | 15
19 | 5.48 | COCCn1c(=O)n(CCc2ccccc2)c(=O)c2c(C)c(Cl)sc21 | 3 | 3 | 
20 | 6.27 | COCCn1c(=O)n(CCc2ccccc2)c(=O)c2c(C)c(Cc3ccccc3)sc21 | 0.19 | 4 | 
21 | 6.31 | COCCn1c(=O)n(CCc2ccccc2)c(=O)c2c3c(sc21)CCCC3 | 3 |  | 13
22 | 6.84 | Cc1csc2c1c(=O)n(CCc1ccccc1)c(=O)n2Cc1nccn1C | 4 | 21 | 46
23 | 6.12 | COCCn1c(=O)n(CCc2ccccc2)c(=O)c2c(C)c(CN3CCOCC3)sc21 | 1 | 7 | 9
24 | < 5.00 | COCCn1c(=O)n(CCN2CCS(=O)(=O)CC2)c(=O)c2c(C)csc21 | 1 | 1 | 1
25 | 5.33 | COCCn1c(=O)n(CCc2ccccc2)c(=O)c2ccsc21 | 2 | 2 | 1
26 | 6.87 | Cc1csc2c1c(=O)n(CCc1ccccc1)c(=O)n2CCF |  |  | 
27 | 5.64 | COCCn1c(=O)n(CCc2ccccc2)c(=O)c2c(C)c(C(=O)c3ccccc3)sc21 | 0.6 | 3 | 
